The text below walks through data of patent US20240067693A1, “POLYPEPTIDES AND USES THEREOF” (MEDIMMUNE LIMITED, priority 2020, published 2024).

The EC50 is the concentration that produces a half-maximal response. A word on the half-life: it is how long it takes for the measured level to halve. Higher therefore signals slow loss.

Numbered stars: 1 amine (or outer) side, 2 acyl side, 3 side chain; on linkers, the order of the positions; unused ones are H or OH. Bridge positions count the residues as written; N and C are the ends. Square brackets hold non-standard residues; d marks the D form. Side chains are listed from the residue outwards. Peptide text beside a SMILES is read from it. * marks the point of attachment. C18 diacid = O=C(O)CCCCCCCCCCCCCCCCC(=O)*; γGlu = O=C(O)[C@H](CCC(=O)[*:2])N[*:1]; αMeF = C[C@](N)(Cc1ccccc1)C(=O)O; Aib = CC(C)(N)C(=O)O

Data set [1] deals with T1, rat calcitonin receptor (rat CTR) (Rattus norvegicus, UniProt P32214).
T1 construct: expressed in transfected cells
T1 sequence (P32214 25-516): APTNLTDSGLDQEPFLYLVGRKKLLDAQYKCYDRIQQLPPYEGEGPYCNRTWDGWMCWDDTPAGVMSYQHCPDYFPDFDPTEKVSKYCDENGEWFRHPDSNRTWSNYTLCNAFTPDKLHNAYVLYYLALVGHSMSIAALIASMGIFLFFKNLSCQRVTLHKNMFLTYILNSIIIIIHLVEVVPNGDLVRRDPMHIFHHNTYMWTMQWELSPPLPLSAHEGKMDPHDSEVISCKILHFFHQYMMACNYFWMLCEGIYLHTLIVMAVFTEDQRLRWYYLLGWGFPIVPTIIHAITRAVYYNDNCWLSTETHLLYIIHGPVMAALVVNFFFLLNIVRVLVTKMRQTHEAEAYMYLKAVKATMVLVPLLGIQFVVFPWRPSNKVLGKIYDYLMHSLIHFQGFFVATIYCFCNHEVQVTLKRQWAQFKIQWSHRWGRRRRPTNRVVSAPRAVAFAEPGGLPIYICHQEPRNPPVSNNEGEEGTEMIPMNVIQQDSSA
The data set can be described thus: cAMP production in HEK cells with stable recombinant expression of rat calcitonin receptor (rat CTR). The note with it: assay buffer with 0.1% BSA. In kind it is cell-based. A digest of the protocol: (§1)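 Receptor-expressing cells (human receptors in 1321N1, rat receptors in HEK) incubated 30 min at room temperature with peptide in HBSS/HEPES pH 7.4, 0.1% BSA, 0.5 mM IBMX. cAMP read by HTRF; EC50 from 4-parameter fit as % of maximal amylin or calcitonin response.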
In general terms: Changes in cAMP serve as a functional read-out for many G protein-coupled receptors.

Data set [2] concerns the target T2, rat amylin receptor (calcitonin receptor co-expressed with receptor activity modifying protein, RAMP3) (Rat AMYR3) (Rattus norvegicus, UniProt P32214+Q9JJ73).
T2 construct: expressed in transfected cells
T2 sequence (P32214 25-516): T1 sequence (P32214 25-516)
T2 sequence (Q9JJ73 23-147 partner): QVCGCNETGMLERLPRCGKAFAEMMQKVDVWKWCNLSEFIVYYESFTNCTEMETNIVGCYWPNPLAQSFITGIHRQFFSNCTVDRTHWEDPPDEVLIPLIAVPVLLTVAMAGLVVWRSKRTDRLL
The data set can be described thus: cAMP production in HEK cells with stable recombinant expression of rat amylin receptor (Rat AMYR3). It counts as cell-based. Conditions: assay buffer with 0.1% BSA. A digest of the protocol: as §1

A short description of data set [3]: Pharmacokinetic determination via IV and SC administration in Sprague Dawley rats. Conditions: male, rat, plasma, 20 nmol/kg.
Method: PK studies were performed to determine the half-life (T1/2) of test peptides. T1/2 describes the time taken for the maximum plasma concentration (Cmax) of a test substance to halve its steady-state concentration when in circulation.
Male SD rats were purchased from Si Bei Fu Laboratory Animal Technology Co. Ltd (China). The animals were 6-8 weeks old with body weights of 200-300 g on the dosing date. The animals were housed in a 12-hour light/12-hour dark cycle environment and were fasted overnight before dosing. The body weight of the animals were recorded before dosing, 24 h and 48 h post dosing . Animals had free access to food and drinks, and the food consumption was quantified every day.
Test articles were administered at 20 nmol/kg. Blood samples were collected from each animal via Jugular vein.
The blood samples were transferred into eppendorf low binding tube containing K2 EDTA. Above 0.150 mL blood were collected at each time point. Blood samples were centrifuged at 4,000 g for 5 minutes at 4° C. to obtain plasma. The plasma samples were stored frozen at −75±15° C. until analysis.
Concentrations of the test articles in the plasma samples were analyzed using a LC-MS/MS method. Data acquisition was performed by LabSolution version 5.89 software (Shimadzu, Kyoto, Japan). Data statistics were performed using Excel 97-2003 software. The pharmacokinetic parameters of test articles were calculated using a non-compartmental approach with Phoenix™ VVinNonlin® 6.1.
The following pharmacokinetic parameters were calculated, whenever possible from the plasma concentration versus time data: • IV administration: T1/2, C0, AUClast, AUCinf, MRTinf, Cl, Vss, Number of Points for Regression. • SC administration: Tmax, Cmax, AUClast, AUCinf, MRTinf, F, Number of Points for Regression.

In the case of `CC[C@H](C)[C@H](NC(=O)[C@@H]1CCCN1C(=O)CNC(=O)[C@H](Cc1ccccc1)NC(=O)[C@H](CC(N)=O)NC(=O)[C@H](CC(N)=O)NC(=O)[C@H](CO)NC(=O)[C@H](CO)NC(=O)[C@H](Cc1c[nH]cn1)NC(=O)C(C)(C)NC(=O)[C@H](CC(C)C)NC(=O)[C@H](Cc1ccccc1)NC(=O)[C@H](CC(N)=O)NC(=O)[C@H](C)NC(=O)[C@H](CC(C)C)NC(=O)[C@H](CCCNC(=N)N)NC(=O)[C@H](CCC(N)=O)NC(=O)[C@@H](NC(=O)[C@H](C)NC(=O)[C@@H]1CSSC[C@H](NC(=O)[C@H](CCCCN)NC(=O)[C@@H](N)CCCCNC(=O)CC[C@H](NC(=O)CCCCCCCCCCCCCCCCC(=O)O)C(=O)O)C(=O)N[C@@H](CC(N)=O)C(=O)N[C@@H]([C@@H](C)O)C(=O)N[C@@H](C)C(=O)N[C@@H]([C@@H](C)O)C(=O)N1)[C@@H](C)O)C(=O)N[C@@H](CC(C)C)C(=O)N1CCC[C@H]1C(=O)N1CCC[C@H]1C(=O)N[C@H](C(=O)N[C@@H](CC(N)=O)C(=O)N[C@H](C(=O)NCC(=O)N[C@@H](CO)C(=O)N[C@@H](CC(N)=O)C(=O)N[C@H](C(=O)N[C@@H](Cc1ccc(O)cc1)C(N)=O)[C@@H](C)O)C(C)C)[C@@H](C)O` [Peptide 129] (H-K([γGlu-C18 diacid])KCNTATCATQRLANFL[Aib]HSSNNFGPILPPTNVGSNTY-NH2; disulfide 3-8; N-terminus assumed), the EC50 in data set [1] was found to be 2870 pM; in data set [2], 11.2 pM. For the same compound, the values for the half-life in data set [3] (iv) and in data set [3] (sc) were 10.3 h and 9 h, respectively.

In the case of `CC[C@H](C)[C@H](NC(=O)[C@@H]1CCCN1C(=O)CNC(=O)[C@H](Cc1ccccc1)NC(=O)[C@H](CC(N)=O)NC(=O)C(C)(C)NC(=O)[C@H](CO)NC(=O)[C@H](CO)NC(=O)[C@H](Cc1c[nH]cn1)NC(=O)[C@H](CCCNC(=N)N)NC(=O)[C@H](CC(C)C)NC(=O)[C@H](Cc1ccccc1)NC(=O)[C@H](CC(N)=O)NC(=O)[C@H](C)NC(=O)[C@H](CC(C)C)NC(=O)[C@H](CCCNC(=N)N)NC(=O)[C@H](CCC(N)=O)NC(=O)[C@@H](NC(=O)[C@H](C)NC(=O)[C@@H]1CSSC[C@H](NC(=O)[C@@H](N)CCCCNC(=O)CC[C@H](NC(=O)CCCCCCCCCCCCCCCCC(=O)O)C(=O)O)C(=O)N[C@@H](CC(N)=O)C(=O)N[C@@H]([C@@H](C)O)C(=O)N[C@@H](C)C(=O)N[C@@H]([C@@H](C)O)C(=O)N1)[C@@H](C)O)C(=O)N[C@@H](CC(C)C)C(=O)N1CCC[C@H]1C(=O)N1CCC[C@H]1C(=O)N[C@H](C(=O)N[C@@H](CCC(=O)O)C(=O)N[C@H](C(=O)NCC(=O)N[C@@H](CO)C(=O)N[C@@H](CC(N)=O)C(=O)N[C@H](C(=O)N[C@@H](Cc1ccc(O)cc1)C(N)=O)[C@@H](C)O)C(C)C)[C@@H](C)O` [Peptide 44, K(γE-C18diacid)[CNTATC]ATQRLANFLRHSS(Aib)NFGPILPPTEVGSNTY-amide] (H-K([γGlu-C18 diacid])CNTATCATQRLANFLRHSS[Aib]NFGPILPPTEVGSNTY-NH2; disulfide 2-7; N-terminus assumed), the EC50 in data set [1] is 2240 pM; in data set [2] it was 18.5 pM. The half-life is 8.9 h in data set [3] (iv) and 11 h in data set [3] (sc).

Take `CC[C@H](C)[C@H](NC(=O)[C@@H]1CCCN1C(=O)CNC(=O)[C@](C)(Cc1ccccc1)NC(=O)[C@H](CC(N)=O)NC(=O)[C@H](CC(N)=O)NC(=O)[C@H](CO)NC(=O)[C@H](CO)NC(=O)[C@H](Cc1c[nH]cn1)NC(=O)[C@H](CCCNC(=N)N)NC(=O)[C@H](CC(C)C)NC(=O)[C@H](Cc1ccccc1)NC(=O)[C@H](CCC(=O)O)NC(=O)[C@H](C)NC(=O)[C@H](CC(C)C)NC(=O)[C@H](CCCNC(=N)N)NC(=O)[C@H](CCC(N)=O)NC(=O)[C@@H](NC(=O)[C@H](C)NC(=O)[C@@H]1CSSC[C@H](NC(=O)[C@H](CCCCN)NC(=O)[C@@H](N)CCCCNC(=O)CC[C@H](NC(=O)CCCCCCCCCCCCCCCCC(=O)O)C(=O)O)C(=O)N[C@@H](CC(N)=O)C(=O)N[C@@H]([C@@H](C)O)C(=O)N[C@@H](C)C(=O)N[C@@H]([C@@H](C)O)C(=O)N1)[C@@H](C)O)C(=O)N[C@@H](CC(C)C)C(=O)N1CCC[C@H]1C(=O)N1CCC[C@H]1C(=O)N[C@H](C(=O)N[C@@H](CC(N)=O)C(=O)N[C@H](C(=O)NCC(=O)N[C@@H](CO)C(=O)N[C@@H](CC(N)=O)C(=O)N[C@H](C(=O)N[C@@H](Cc1ccc(O)cc1)C(N)=O)[C@@H](C)O)C(C)C)[C@@H](C)O` [Peptide 12, K(γE-C18diacid)K[CNTATC]ATQRLAEFLRHSSNN(αMePhe)GPILPPTNVGSNTY-amide] (H-K([γGlu-C18 diacid])KCNTATCATQRLAEFLRHSSNN[αMeF]GPILPPTNVGSNTY-NH2; disulfide 3-8; N-terminus assumed): the concentration for a half-maximal effect (EC50) is 107 pM in data set [1] and 5 pM in data set [2]. In addition, the half-life in data set [3] (iv) was 9.2 h; in data set [3] (sc) it was 9.7 h.

As for `CC[C@H](C)[C@H](NC(=O)[C@@H]1CCCN1C(=O)CNC(=O)[C@](C)(Cc1ccccc1)NC(=O)[C@H](CC(N)=O)NC(=O)[C@H](CC(N)=O)NC(=O)[C@H](CO)NC(=O)[C@H](CO)NC(=O)[C@H](Cc1c[nH]cn1)NC(=O)[C@H](CCCNC(=N)N)NC(=O)[C@H](CC(C)C)NC(=O)[C@H](Cc1ccccc1)NC(=O)[C@H](CC(N)=O)NC(=O)[C@H](C)NC(=O)[C@H](CC(C)C)NC(=O)[C@H](CCCNC(=N)N)NC(=O)[C@H](CCC(N)=O)NC(=O)[C@@H](NC(=O)[C@H](C)NC(=O)[C@@H]1CSSC[C@H](NC(=O)[C@@H](N)CCCCNC(=O)CC[C@H](NC(=O)CC[C@H](NC(=O)CCCCCCCCCCCCCCCCC(=O)O)C(=O)O)C(=O)O)C(=O)N[C@@H](CC(N)=O)C(=O)N[C@@H]([C@@H](C)O)C(=O)N[C@@H](C)C(=O)N[C@@H]([C@@H](C)O)C(=O)N1)[C@@H](C)O)C(=O)N[C@@H](CC(C)C)C(=O)N1CCC[C@H]1C(=O)N1CCC[C@H]1C(=O)N[C@H](C(=O)N[C@@H](CC(N)=O)C(=O)N[C@H](C(=O)NCC(=O)N[C@@H](CO)C(=O)N[C@@H](CC(N)=O)C(=O)N[C@H](C(=O)N[C@@H](Cc1ccc(O)cc1)C(N)=O)[C@@H](C)O)C(C)C)[C@@H](C)O` [Peptide 20, K(γE-γE-C18diacid)[CNTATC]ATQRLANFLRHSSNN(αMePhe)GPILPPTNVGSNTY-amide] (H-K([γGlu-γGlu-C18 diacid])CNTATCATQRLANFLRHSSNN[αMeF]GPILPPTNVGSNTY-NH2; disulfide 2-7; N-terminus assumed), the EC50 in data set [1] came to 1850 pM; in data set [2], 10.4 pM. The half-life in data set [3] (iv) is 10 h; in data set [3] (sc), 10.8 h.
